Measurements as given in patent US20050153894A1, “p21 peptides” (Cyclacel Limited, priority 1999, published 2005).
Read-outs that look alike come from different tables or passages of the source. Numbered stars: 1 amine (or outer) side, 2 acyl side, 3 side chain; on linkers, the order of the positions; unused ones are H or OH. Square brackets hold non-standard residues; d marks the D form. Dhp = Dehydrophenylalanine, O=C(/C(=C/c1ccccc1)N[*:1])[*:2]; Phe(ol) = N[C@H](CO)Cc1ccccc1; dPse = not defined here; Pse = Phenylserine

Key:
CDK4/Cyclin D1 = target: T1, CDK4/Cyclin D1 (Homo sapiens, UniProt P24385); test: CDK4/Cyclin D1 kinase assay, phosphorylation of GST-Rb; format: biochemical
T1 construct: made in house; host or cells: CDK4: Sf9 insect cells (baculovirus)
T1 sequence (P24385 whole entry): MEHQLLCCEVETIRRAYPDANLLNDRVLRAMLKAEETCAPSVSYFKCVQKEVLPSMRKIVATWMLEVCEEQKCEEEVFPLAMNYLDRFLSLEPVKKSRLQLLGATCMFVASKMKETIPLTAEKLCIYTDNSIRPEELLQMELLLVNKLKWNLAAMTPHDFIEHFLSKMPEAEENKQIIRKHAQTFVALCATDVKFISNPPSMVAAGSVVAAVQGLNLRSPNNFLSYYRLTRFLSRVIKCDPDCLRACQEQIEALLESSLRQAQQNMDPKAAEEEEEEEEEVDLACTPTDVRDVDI
T1 sequence (P11802 whole entry partner): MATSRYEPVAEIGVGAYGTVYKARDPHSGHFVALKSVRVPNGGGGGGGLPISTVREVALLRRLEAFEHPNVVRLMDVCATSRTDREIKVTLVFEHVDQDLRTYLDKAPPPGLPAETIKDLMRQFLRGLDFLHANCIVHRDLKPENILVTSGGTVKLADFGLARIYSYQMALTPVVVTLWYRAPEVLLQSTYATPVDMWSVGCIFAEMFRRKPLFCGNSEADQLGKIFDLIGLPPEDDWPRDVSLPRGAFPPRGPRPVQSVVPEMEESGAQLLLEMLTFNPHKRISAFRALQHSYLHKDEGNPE
Protocol: (§1) The phosphorylation reaction mixture (total volume 40 μl) consisted of 50 mM HEPES pH 7.4, 20 mM MgCl2, 5 mM EGTA, 2 mM DTT, 20 mM β-glycerophosphate, 2 mM NaF, 1 mM Na3VO4, Protease Inhibitors Cocktail (Sigma, see above), BSA 0.5 mg/ml, 1 μg purified enzyme complex, 10 μl of GST-Rb-Sepharose beads, 100 μM ATP, 0.2 μCi ^32P-ATP. The reaction was carried out for 30 min at 30° C. at constant shaking. At the end of this period 100 μl of 50 mM HEPES, pH 7.4 and 1 mM ATP were added to each well and the total volume was transferred onto GFC filtered plate. The plate was washed 5 times with 200 μl of 50 mM HEPES, pH 7.4 and 1 mM ATP. To each well were added 50 μl scintillant liquid and the radioactivity of the samples was measured on Scintilation counter (Topcount, HP). The IC50 values of different peptides were calculated using GraFit software.
Peptides were synthesized as described above. Cyclin D1 was expressed in E coli BL21(DE3) using PET expression vector and purified from the inclusion bodies. After refolding Cyclin D1 was cross-linked on SulfoLink agarose support (PIERCE). CDK4-6×His was expressed in Sf9 insect cells infected with the appropriate baculovirus construct and purified by metal-affinity chromatography (Quiagen). […] CDK4/Cyclin D1 phosphorilation of Rb was determined by incorporation of radio-labeled phosphate in GST-Rb in 96-well format kinase assay. […] The reaction was carried out for 30 min at 30 C at constant shaking. The GST-Rb-Sepharose beads were washed with 50 mM HEPES and 1 mM ATP and the radioactivity was measured on Scintillation counter (Topcount, HP)

CDK2/Cyclin E = target: T2, CDK2/Cyclin E (Homo sapiens, UniProt P24864); test: CDK2/Cyclin E kinase assay, phosphorylation of GST-Rb; format: biochemical; details: for Kinase Inhibition Cyclin E/CDK2 % Inhibition / Kinase Inhibition Cyclin E/CDK2 IC30: GST-pRb substrate, [ATP] = 100 μM
T2 construct: 6xHis; made in house; host or cells: Sf9 insect cells (baculovirus co-expression)
Protocol: as §1

CDK2/cyclin A = CDK2/cyclin A (Homo sapiens, UniProt P20248); test: CDK2/cyclin A kinase assay, substrate pRb(773-928); format: biochemical; details: for Relative activity Kinase Inhibition: pRb substrate, [ATP] = 100 μM
Text: Reactions were stopped on ice, followed by filtration through p81 filterplates (Whatman Polyfiltronics, Kent, UK).

Cyclin A = Cyclin A (Homo sapiens, UniProt P20248); test: Cyclin A binding assay, immobilised biotinyl-Ahx-[…]NH2; details: for Cyclin A Binding Maximum Inhibition: at 100 μM, no IC50 given
Chain of Cyclin A (P20248 whole entry): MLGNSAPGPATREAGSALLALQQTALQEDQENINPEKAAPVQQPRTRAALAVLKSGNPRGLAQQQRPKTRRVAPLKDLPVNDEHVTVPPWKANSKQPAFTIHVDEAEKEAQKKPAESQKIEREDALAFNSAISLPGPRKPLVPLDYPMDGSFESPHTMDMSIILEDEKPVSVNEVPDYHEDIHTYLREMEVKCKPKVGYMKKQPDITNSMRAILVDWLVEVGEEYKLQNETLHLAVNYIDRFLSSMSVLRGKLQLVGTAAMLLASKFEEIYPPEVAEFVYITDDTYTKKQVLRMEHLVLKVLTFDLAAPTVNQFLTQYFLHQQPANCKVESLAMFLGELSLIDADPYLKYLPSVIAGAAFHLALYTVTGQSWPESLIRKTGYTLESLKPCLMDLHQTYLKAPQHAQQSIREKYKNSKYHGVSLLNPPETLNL
Protocol: This was added to each well (100 μL). The plate was incubated for 1 h at room temperature with constant shaking. The plate was washed once quickly with TBS/BSA buffer (200 μL), followed by three more washes with TBS/BSA buffer (200 μL) for 5 min each. Serial dilutions of test peptides were prepared in a new plate (50 μL in each well). Cyclin A was diluted to 5 μg/50 μL with TBS/BSA buffer and this was then added to each well (50 μL). The solutions were mixed thoroughly with a pipette (5-6 times), before being incubated for 30 min at room temperature. This reaction mixture was then transferred to the biotinylated peptide: streptavidin-coated plate and incubated for 1 h at room temperature with constant shaking. The plate was washed once quickly with TBS/BSA buffer (200 μL), followed by three more washes with TBS/BSA buffer (200 μL) for 5 min each. The cyclin A antibody (Santa Cruz polyclonal) solution was diluted 1:200 with TBS/BSA buffer and this was then added to each well of the plate (100 μL. The plate was incubated for 1 h at room temperature with constant shaking. The plate was washed once quickly with TBS/BSA buffer (200 μl), followed by three more washes with TBS/BSA buffer (200 μL) for 5 min each. The anti-rabbit secondary antibody (goat anti-rabbit IgG peroxidase conjugate) was diluted 1:10,000 with TBS/BSA and this was then added to each well of the plate (100 μL). The plate was incubated for 1 h at room temperature with constant shaking. The plate was washed once quickly with TBS/BSA buffer (200 μL), followed by three more washes with TBS/BSA buffer (200 μL) for 5 min each. To each well was added the TMB-ELISA reagent (Pierce 1-Step™ Turbo TMB-ELISA; 100 μL) and the plate incubated for 1 min with constant shaking. The reaction was then quenched by the addition of 2 M aqueous H2SO4 (100 μL, each well). The UV absorbance of the each solution was measured spectrophotometrically at 450 nm. IC50 values were calculated from dose-response curves.

[1] = GST-pRb substrate, [ATP] = 100 μM
[2] = relative to H-His-Ala-Lys-Arg-Arg-Leu-Ile-Phe-NH2 (SEQ ID No. 36) = 1, CDK2/cyclin A kinase assay
[3] = relative to SEQ ID No. 36 = 1, competitive cyclin A binding, immobilised biotinyl-Ahx-His-Ala-Lys-Arg-Arg-Leu-Ile-Phe-NH2
[4] = His152 substitutions, relative to H-His-Ala-Lys-Arg-Arg-Leu-Ile-Phe-NH2 (=1)
[5] = Leu157 substitutions, relative to H-His-Ala-Lys-Arg-Arg-Leu-Ile-Phe-NH2 (=1)
[6] = Ile158 substitutions, relative to H-His-Ala-Lys-Arg-Arg-Leu-Ile-Phe-NH2 (=1)
[7] = Arg156 substitutions, relative to H-His-Ala-Lys-Arg-Arg-Leu-Ile-Phe-NH2 (=1)

CC[C@H](C)[C@H](NC(=O)[C@H](CC(C)C)NC(=O)[C@H](CCCNC(=N)N)NC(=O)[C@H](CCCNC(=N)N)NC(=O)[C@H](CCCCN)NC(=O)[C@H](CO)NC(=O)[C@@H](N)Cc1c[nH]cn1)C(=O)N[C@@H](Cc1ccccc1)C(N)=O
inhibition at 100 µM (CDK4/Cyclin D1; [1]): 72%
IC50 (CDK4/Cyclin D1; phosphorylation of pRb, read-out: Kinase Inhibition Cyclin D1/CDK4 IC50): 21 µM
IC50 (CDK2/Cyclin E; phosphorylation of pRb, read-out: Kinase Inhibition Cyclin E/CDK2 IC50): 3.4 µM
Kinase Inhibition Cyclin A/CDK2 % Inhibition (CDK2/cyclin A; phosphorylation of pRb): 80%
IC50 (CDK2/cyclin A; phosphorylation of pRb, read-out: Kinase Inhibition Cyclin A/CDK2 IC50): 3.4 µM

24 (FYHSKRRLIFS) [compound 24]
Cyclin A Binding Maximum Inhibition (Cyclin A): 50(at 100 (μM) %

30 (SKRRLIF) [compound 30]
Cyclin A Binding Maximum Inhibition (Cyclin A): 20(at 100 (μM) %

110 (H-HAKRRLI[Pse]-OH) [compound 110]
Relative activity Kinase Inhibition (CDK2/cyclin A; [2]): <0.1
Relative activity Cyclin A Binding (Cyclin A; [3]): 0.2

111 (H-HAKRRLI[dPse]-OH; reading uncertain) [compound 111]
Relative activity Kinase Inhibition (CDK2/cyclin A; [2]): <0.1
Relative activity Cyclin A Binding (Cyclin A; [3]): 0.1

112 (H-HSKRRLI[Pse]-OH) [compound 112]
Relative activity Kinase Inhibition (CDK2/cyclin A; [2]): <0.1
Relative activity Cyclin A Binding (Cyclin A; [3]): <0.1

113 (H-HSKRRLI[dPse]-OH; reading uncertain) [compound 113]
Relative activity Kinase Inhibition (CDK2/cyclin A; [2]): <0.1
Relative activity Cyclin A Binding (Cyclin A; [3]): <0.1

118 (H-HAKRRLI[Dhp]-OH; not fully specified) [compound 118]
Relative activity Kinase Inhibition (CDK2/cyclin A; [2]): 3.3
Relative activity Cyclin A Binding (Cyclin A; [3]): 0.2

120 (H-HAKRRLI[Phe(ol)]) [compound 120]
Relative activity Kinase Inhibition (CDK2/cyclin A; [2]): 0.6
Relative activity Cyclin A Binding (Cyclin A; [3]): 1.0

CC(=O)N[C@@H](CCCN=C(N)N)C(=O)N[C@@H](CCCN=C(N)N)C(=O)N[C@@H](CC(C)C)C(=O)N[C@@H](CC(N)=O)C(=O)N[C@@H](Cc1ccccc1)C(N)=O [compound 378]
IC50 (CDK2/cyclin A): 37.2 µM
IC50 (Cyclin A): 8.15 µM

H-Ala-Ala-Lys-Arg-Arg-Leu-Ile Phe-NH2 (H-AAKRRLIF-NH2)
Relative activity Kinase Inhibition (CDK2/cyclin A; [4]): 1.8
Relative activity Cyclin A Binding (Cyclin A; [4]): 2.5

H-Dab-Ala-Lys-Arg-Arg-Leu-Ile Phe-NH2 (XAKRRLIF; N-terminal Dab, C-terminal amide)
Relative activity Kinase Inhibition (CDK2/cyclin A; [4]): 5
Relative activity Cyclin A Binding (Cyclin A; [4]): 0.4

H-His Ala-Lys-Arg-Arg-Ile-Ile Phe-NH2 (H-HAKRRIIF-NH2)
Relative activity Kinase Inhibition (CDK2/cyclin A; [5]): 1.5
Relative activity Cyclin A Binding (Cyclin A; [5]): 0.2

H-His Ala-Lys-Arg-Arg-Leu-Val-Phe-NH2 (H-HAKRRLVF-NH2)
Relative activity Kinase Inhibition (CDK2/cyclin A; [6]): 0.8
Relative activity Cyclin A Binding (Cyclin A; [6]): 1.5

H-His Ala-Lys-Arg-Pro-Leu-Ile Phe-NH2 (H-HAKRPLIF-NH2)
Relative activity Kinase Inhibition (CDK2/cyclin A; [7]): <0.1
Relative activity Cyclin A Binding (Cyclin A; [7]): <0.1

HSKRRLIFSKRK
Kinase Inhibition Cyclin D1/CDK4 % Inhibition (CDK4/Cyclin D1; [1]): 80%
Kinase Inhibition Cyclin D1/CDK4 IC30 (CDK4/Cyclin D1; [1]): 34 ± 6 µM
Kinase Inhibition Cyclin E/CDK2 % Inhibition (CDK2/Cyclin E): 90%

KRRLIF
Kinase Inhibition Cyclin D1/CDK4 % Inhibition (CDK4/Cyclin D1; [1]): 72%
Kinase Inhibition Cyclin D1/CDK4 IC30 (CDK4/Cyclin D1; [1]): >200 µM
Kinase Inhibition Cyclin E/CDK2 % Inhibition (CDK2/Cyclin E): 80%

MTDFYHSKRRLI (H-MTDFYHSKRRLI-NH2)
Kinase Inhibition Cyclin D1/CDK4 % Inhibition (CDK4/Cyclin D1; [1]): 11%
Kinase Inhibition Cyclin E/CDK2 % Inhibition (CDK2/Cyclin E): 35%

SKRRLIF
Kinase Inhibition Cyclin D1/CDK4 % Inhibition (CDK4/Cyclin D1; [1]): 72%
Kinase Inhibition Cyclin D1/CDK4 IC30 (CDK4/Cyclin D1; [1]): 54 µM
Kinase Inhibition Cyclin E/CDK2 % Inhibition (CDK2/Cyclin E): 80%
Kinase Inhibition Cyclin E/CDK2 IC30 (CDK2/Cyclin E): 7.7 ± 0.5 µM

SKRRLIFSKRKP
Kinase Inhibition Cyclin D1/CDK4 % Inhibition (CDK4/Cyclin D1; [1]): 40%
Kinase Inhibition Cyclin E/CDK2 % Inhibition (CDK2/Cyclin E): 70%
Kinase Inhibition Cyclin E/CDK2 IC30 (CDK2/Cyclin E): 46 ± 33 µM

SMTDFYHSKRRL (H-SMTDFYHSKRRL-NH2)
Kinase Inhibition Cyclin D1/CDK4 % Inhibition (CDK4/Cyclin D1; [1]): 18%
Kinase Inhibition Cyclin E/CDK2 % Inhibition (CDK2/Cyclin E): 40%

TDFYHSKRRLIF
Kinase Inhibition Cyclin D1/CDK4 % Inhibition (CDK4/Cyclin D1; [1]): 72%
Kinase Inhibition Cyclin D1/CDK4 IC30 (CDK4/Cyclin D1; [1]): 15 ± 3 µM
Kinase Inhibition Cyclin E/CDK2 % Inhibition (CDK2/Cyclin E): 85%

TDFYHSKRRLIF [p21(148-159)]
inhibition of CDK4/Cyclin D1 phosphorylation of GST-Rb, in words (CDK4/Cyclin D1): active
inhibition of CDK2/Cyclin E phosphorylation of GST-Rb, in words (CDK2/Cyclin E): active

TSMTDFYHSKRR (H-TSMTDFYHSKRR-NH2)
Kinase Inhibition Cyclin D1/CDK4 % Inhibition (CDK4/Cyclin D1; [1]): 30%
Kinase Inhibition Cyclin E/CDK2 % Inhibition (CDK2/Cyclin E): 35%

YHSKRRL
Kinase Inhibition Cyclin D1/CDK4 % Inhibition (CDK4/Cyclin D1; [1]): 10%
Kinase Inhibition Cyclin E/CDK2 % Inhibition (CDK2/Cyclin E): 30%
Kinase Inhibition Cyclin E/CDK2 IC30 (CDK2/Cyclin E): >200 µM

YHSKRRLI
Kinase Inhibition Cyclin D1/CDK4 % Inhibition (CDK4/Cyclin D1; [1]): 15%
Kinase Inhibition Cyclin E/CDK2 % Inhibition (CDK2/Cyclin E): 45%
Kinase Inhibition Cyclin E/CDK2 IC30 (CDK2/Cyclin E): >200 µM

YHSKRRLIF
Kinase Inhibition Cyclin D1/CDK4 % Inhibition (CDK4/Cyclin D1; [1]): 70%
Kinase Inhibition Cyclin D1/CDK4 IC30 (CDK4/Cyclin D1; [1]): 16 ± 1 µM
Kinase Inhibition Cyclin E/CDK2 % Inhibition (CDK2/Cyclin E): 80%
Kinase Inhibition Cyclin E/CDK2 IC30 (CDK2/Cyclin E): 7 ± 2 µM

YHSKRRLIFS
Kinase Inhibition Cyclin D1/CDK4 % Inhibition (CDK4/Cyclin D1; [1]): 70%
Kinase Inhibition Cyclin D1/CDK4 IC30 (CDK4/Cyclin D1; [1]): 20 ± 1 µM
Kinase Inhibition Cyclin E/CDK2 % Inhibition (CDK2/Cyclin E): 80%
Kinase Inhibition Cyclin E/CDK2 IC30 (CDK2/Cyclin E): 7.3 ± 0.8 µM

YHSKRRLIFSKR
Kinase Inhibition Cyclin D1/CDK4 % Inhibition (CDK4/Cyclin D1; [1]): 60%
Kinase Inhibition Cyclin D1/CDK4 IC30 (CDK4/Cyclin D1; [1]): 45 ± 10 µM
Kinase Inhibition Cyclin E/CDK2 % Inhibition (CDK2/Cyclin E): 80%
